This is an account of results in US10525139B2, “Folate-conjugated molecules for delivery of toxic small molecule inhibitors to cancer cells and methods of use” (priority 2014, dated 2020).

Entries after “also recorded” stand apart in the source; their conditions may differ.

Data set [1] deals with NOTCH1. Briefly: NOTCH1 cell surface staining by flow cytometry. The format is cell-based, human. The following applies: T-ALL cells; for NOTCH1 expression on the cell surface: 24 hours. From the text: (§1) We previously described that the SERCA inhibitors thapsigargin and cyclopiazonic acid impair NOTCH1 maturation leading to an accumulation of full-length, unprocessed polypeptides in the endoplasmic reticulum/Golgi subcellular compartment. An immediate consequence of SERCA inhibition is a decrement in NOTCH1 protein display on the surface of T-ALL cells. […] To further support the hypothesis that Thap-OH impairs mutant NOTCH1 maturation, we evaluated levels of full-length, transmembrane and activated NOTCH1 (ICN1) by WB. Lysates from T-ALL cell lines treated with 1 μM Thap-OH were immunoblotted with an antibody specific for the cytoplasmic portion of NOTCH1 that recognizes both unprocessed NOTCH1 (FL-N1) (˜270 kDa) and the furin-processed transmembrane subunit (TM-N1) (˜110 kDa).
(§2) The NOTCH loss was measured via flow cytometry. […] The recapitulation of the thapsigargin effect by JQ-FT is hypothesized to be due to the delivery strategy introduced by folate. […] Here cell growth was assessed using the Promega Cell-Titer Glo ATP-based assay (Promega, Madison, Wis., USA). Luminescence was measured using a Fluostar Omega instrument (BMG-labtech, Ortenberg, Germany).
On the technique in general: Flow cytometry measures light scatter and fluorescence of single cells or particles in a stream.

The next data set has as its target T1, SERCA2 (Homo sapiens, UniProt P16615).
T1 construct: Lysates from T-ALL cells (ALL/SIL) were co-treated with the indicated concentrations of biotinylated thapsigargin or Thap-OH; endogenous in cells; host or cells: ALL/SIL T-ALL cells (lysate)
Briefly: Competitive pull-down with Thap-Biotin in T-ALL lysates, immunoblot. To be noted: ALL/SIL lysates, increasing concentrations of free Thap-OH. The format is binding. As to the method:
(§3) Lysates from T-ALL cells (ALL/SIL) were co-treated with the indicated concentrations of biotinylated thapsigargin or Thap-OH for 6 hours and subjected to streptavidin pulldown for 24 hours. The immunoblot was stained with SERCA2 and SERCA3 antibodies. […] Statistical significance for mutated vs WT (*P≤:0.05, **P≤0.01) was determined by one-way ANOVA with Bonferroni's correction for multiple comparison testing. […] NOTCH1 (N1) was detected with an antibody against the C-terminus of NOTCH1 that recognizes the […] NOTCH1 transmembrane subunit (TM) and the unprocessed NOTCH1 precursor (FL). GAPDH was used as loading control. […] Immunoblot was stained with an antibody against FR2. Vinculin was used as a loading control.
(§4) To test the hypothesis that Thap-OH targets SERCA in T-ALL cells, we first performed a competitive pull-down assay in which protein lysates were treated with a novel biotinylated derivative of thapsigargin (Thap-Biotin), alone or in the presence of increasing concentrations of free, competitive Thap-OH.

A further data set deals with T2, SERCA3 (Homo sapiens, UniProt Q93084).
T2 construct: Lysates from T-ALL cells (ALL/SIL) were co-treated with the indicated concentrations of biotinylated thapsigargin or Thap-OH; endogenous in cells; host or cells: ALL/SIL T-ALL cells (lysate)
T2 sequence (Q93084 whole entry): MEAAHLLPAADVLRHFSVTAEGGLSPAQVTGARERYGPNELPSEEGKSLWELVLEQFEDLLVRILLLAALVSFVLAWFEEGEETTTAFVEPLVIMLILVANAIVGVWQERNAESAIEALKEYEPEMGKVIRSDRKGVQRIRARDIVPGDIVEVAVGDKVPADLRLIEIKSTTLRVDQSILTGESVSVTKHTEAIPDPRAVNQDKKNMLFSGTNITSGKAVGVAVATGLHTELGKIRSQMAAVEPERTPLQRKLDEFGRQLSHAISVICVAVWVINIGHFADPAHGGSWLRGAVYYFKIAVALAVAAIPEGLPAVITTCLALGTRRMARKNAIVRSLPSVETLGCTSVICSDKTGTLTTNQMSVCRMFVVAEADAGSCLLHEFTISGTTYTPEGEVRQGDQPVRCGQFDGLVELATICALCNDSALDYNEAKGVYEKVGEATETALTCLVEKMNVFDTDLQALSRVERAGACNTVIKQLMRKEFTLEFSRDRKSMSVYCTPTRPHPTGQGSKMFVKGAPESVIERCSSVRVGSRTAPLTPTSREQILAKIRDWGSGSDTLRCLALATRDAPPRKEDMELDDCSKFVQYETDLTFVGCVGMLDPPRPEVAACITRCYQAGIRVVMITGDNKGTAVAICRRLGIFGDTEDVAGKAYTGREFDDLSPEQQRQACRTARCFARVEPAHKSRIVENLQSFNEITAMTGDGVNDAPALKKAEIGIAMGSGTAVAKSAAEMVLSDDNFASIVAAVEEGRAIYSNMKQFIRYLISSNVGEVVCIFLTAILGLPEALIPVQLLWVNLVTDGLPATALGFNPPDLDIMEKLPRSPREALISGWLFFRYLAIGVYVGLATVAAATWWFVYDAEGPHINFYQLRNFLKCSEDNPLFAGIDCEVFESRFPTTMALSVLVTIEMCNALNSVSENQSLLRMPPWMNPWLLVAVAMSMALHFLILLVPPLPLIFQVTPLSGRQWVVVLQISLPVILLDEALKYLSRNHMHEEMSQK
Described as above. The data set is classed as binding. To be noted: ALL/SIL lysates, increasing concentrations of free Thap-OH. As to the method: as §3, §4

The subject of data set [2] is NOTCH1. Briefly: NOTCH1 processing and activation by western blot (FL-N1, TM-N1, ICN1). The format is cell-based, human.
Description: as §1
Both Folate-Thap (JQ-FT) and Thap-OH were tested in T-ALL cell lines with 24 h treatment. […] Lysates were prepared after treatment with indicated doses of thapsigargin, JQ-FT or Thap-OH for 24 hr. The blot shown was stained with an antibody against the C-terminus of NOTCH1 that recognizes both the furin-processed NOTCH1 transmembrane subunit (TM) and the unprocessed NOTCH1 precursor (FL) (FIG. 2A). GAPDH was used as a loading control. Western blots were stained with antibodies specific for γ-secretase-cleaved NOTCH 1 ([…], Cell Signaling, Beverly, Mass., USA), or the C-terminus of NOTCH1 (SC-6014 (C-20) Santa Cruz Biotechnology, Santa Cruz, Calif., USA). Control stains were carried out with antibodies specific for GAPDH (137179, Santa Cruz Biotechnology). Blots were developed with anti-rabbit-HRP (NA9340V, Amersham, Pittsburgh, Pa., USA) or anti-mouse-HRP (NA9340V or NA9310V, Amersham). Staining was quantified using ImageQuant TI V 7.0 (GE Health Care, Piscataway, N.J., USA).
In general terms: Immunoblotting shows a protein as a band on a membrane.

Data set [3] relates to T-ALL cell lines. Briefly: T-ALL cell viability / growth (ATP content, Cell-Titer Glo). The data set is classed as cell-based, human. To be noted: 72 hours. On the procedure:
Thus, cell lines carrying NOTCH1 alleles with HD domain, mutations were more sensitive to Thap-OH than cells with WT NOTCH1 alleles.
As a further test of the idea that JQ-FT acts by preventing NOTCH1 activation in a manner similar to thapsigargin, the NOTCH1-dependent T-ALL cell lines RPMI-8402 were transduced with empty MigRI vector or with ICN1, which lies downstream of the γ-secretase cleavage step in Notch activation. Viral supernatant production and retroviral infections were performed as described for MigRI retroviral vectors (Aster, J. C., et al. “Essential roles for ankyrin repeat and transactivation domains in induction of T-cell leukemia by NOTCH1.” Mol. Cell. Biol. 2000; 20:7505-7515). Transduction efficiency for MigRI was monitored by assessing GFP expression with a FACScan flow cytometer (BD, Franklin Lakes, N.J., USA) (Aster et al., Mol. Cell. Biol. 2000; 20:7505-7515). After viral infection, GFP-positive cells were sorted by flow cytometry with a FACSAria II (BD, Franklin Lakes, N.J., USA). […] Therefore, JQ-FT can recapitulate the Thapsigargin effect with the delivery mechanism of folate.
as §2
The effects of JQ-FT in a panel of T-ALL cell lines that contain activating mutations in the HD domain of NOTCH1 and/or protein stabilizing deletions within the PEST degradation domain.

The test system of the next data set is FR2. Briefly: FR2 expression by western blot after Thap-OH. To be noted: T-ALL cell lines, increasing concentrations of Thap-OH, 24 hours. The format is cell-based, human. As to the method:
Thapsigargin is a known inducer of the unfolded protein response (UPR). As such, its derivatives may trigger a cellular response that affects the stable expression or trafficking of folate receptors. To exclude that FR2 is a target of UPR, we treated T-ALL cell lines with increasing concentrations of Thap-OH for 24 hours.

The nature of data set [4]: LCMS analysis of cell lysate and media. The format is in vitro ADME. To be noted: only after cells were treated with FT. On the procedure: In order to validate the delivery of the Thap-OH, LCMS analysis of the cell lysate and the media was used to detect the presence of both Folate-Thap (FT) and Thap-OH. […] To directly visualize the folate delivery of a small molecule, folic acid derivatives with appended fluorophores were designed. Both Folate-FITC, suitable for flow cytometry studies, and Folate-TMARA, suitable for high-throughput fluorescence plate readers, were evaluated in vitro to determine the delivery mechanism.

In data set [5] the test system is T-ALL cell lines. Briefly: Uptake of fluorescent folate probes by flow cytometry in T-ALL cells. The format is cell-based, human. An excerpt:
To assess functional engagement of the folate receptor on T-ALL cells, we generated fluorescence-ragged folic acid probes. FL-TAMRA and FL-FITC, as tool compounds (FIG. 7, panel c). […] Taken together, these observations indicate that functional FR2 expression is increased in T-ALL compared to normal cells, further supporting a rationale for folate-mediated delivery in leukemia.
To explore the mechanism of binding and delivery of folate-conjugates in T-ALL, we performed competition and temperature sensitivity studies of the FL-FITC probe. The T-ALL cell Sine RPMI 8402 was engineered to overexpress either FR1 or FR2 and was then treated with increasing concentrations of FL-FITC. […] We next addressed whether folic acid could compete with the FL-FITC probe for uptake. T-ALL cells were grown in medium depleted of folic acid for 48 hours, treated with FL-FITC (1 or 10 μM), and assessed by flow cytometry. […]
In order to validate the delivery of the Thap-OH, LCMS analysis of the cell lysate and the media was used to detect the presence of both Folate-Thap (FT) and Thap-OH. […] Both Folate-FITC, suitable for flow cytometry studies, and Folate-TMARA, suitable for high-throughput fluorescence plate readers, were evaluated in vitro to determine the delivery mechanism.

T1 sequence (P16615 whole entry): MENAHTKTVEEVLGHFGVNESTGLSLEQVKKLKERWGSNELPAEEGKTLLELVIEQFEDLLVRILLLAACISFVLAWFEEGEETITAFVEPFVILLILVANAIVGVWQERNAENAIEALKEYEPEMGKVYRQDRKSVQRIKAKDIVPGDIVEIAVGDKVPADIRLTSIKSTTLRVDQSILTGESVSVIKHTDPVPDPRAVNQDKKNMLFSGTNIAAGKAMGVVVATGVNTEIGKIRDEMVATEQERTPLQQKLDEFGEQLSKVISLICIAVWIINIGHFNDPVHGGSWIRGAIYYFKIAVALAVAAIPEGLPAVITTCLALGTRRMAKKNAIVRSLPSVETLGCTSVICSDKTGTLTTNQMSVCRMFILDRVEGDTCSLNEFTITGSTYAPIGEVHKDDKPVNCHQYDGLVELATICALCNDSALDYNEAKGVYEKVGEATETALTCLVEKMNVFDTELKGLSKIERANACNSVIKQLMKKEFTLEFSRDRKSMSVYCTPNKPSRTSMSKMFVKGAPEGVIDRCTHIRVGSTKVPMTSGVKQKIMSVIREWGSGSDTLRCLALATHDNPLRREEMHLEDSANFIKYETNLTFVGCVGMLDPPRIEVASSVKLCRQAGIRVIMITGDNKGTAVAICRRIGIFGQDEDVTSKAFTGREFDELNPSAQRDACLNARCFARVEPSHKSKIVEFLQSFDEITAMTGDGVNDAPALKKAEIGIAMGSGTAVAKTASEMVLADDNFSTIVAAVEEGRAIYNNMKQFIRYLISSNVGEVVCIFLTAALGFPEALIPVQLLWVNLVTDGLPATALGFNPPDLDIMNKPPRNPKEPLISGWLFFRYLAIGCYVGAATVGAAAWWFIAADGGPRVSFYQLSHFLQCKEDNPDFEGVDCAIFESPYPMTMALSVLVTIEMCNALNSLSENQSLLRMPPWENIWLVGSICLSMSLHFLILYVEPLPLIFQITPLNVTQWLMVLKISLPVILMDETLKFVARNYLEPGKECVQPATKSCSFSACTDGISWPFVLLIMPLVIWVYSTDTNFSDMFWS

With `C/C=C(/C)C(=O)O[C@H]1C(C)=C2[C@H]([C@@H]1OC(=O)CCCCCCC)[C@@](C)(OC(C)=O)C[C@H](OC(=O)CCC)[C@@]1(O)[C@H]2OC(=O)[C@@]1(C)O` [thapsigargin, Thapsigargin, reference compound], the “NOTCH1 expression on the cell surface” value in the data set on NOTCH1 [1] is “concentration-dependent reduction in NOTCH1 expression on the cell surface”.

On to `C/C=C(/C)C(=O)O[C@H]1C(C)=C2[C@H]([C@@H]1OC(=O)CCCCCCC)[C@@](C)(OC(C)=O)C[C@H](O)[C@@]1(O)[C@H]2OC(=O)[C@@]1(C)O` [Thap-OH, 8-O-debutanoylthapsigargin], for which the “competition with biotinylated thapsigargin for SERCA2” value at SERCA2 is on record as “competed off biotinylated thapsigargin”. The “competition with biotinylated thapsigargin for SERCA3” value on SERCA3 is on record as “competed off biotinylated thapsigargin”. In addition, in the data set on NOTCH1 [1], the “effect on cell surface NOTCH1 compared with thapsigargin” value is “less potent than the natural product; also recorded: reduced effect” and the “NOTCH1 expression on the cell surface” value was “concentration-dependent reduction in NOTCH1 expression on the cell surface; also recorded: show NOTCH loss”. The “furin-processed transmembrane NOTCH1 subunit (TM-N1) level” value with NOTCH1 [2] (T-ALL cell lines with HD mutations, 24 h, Thap-OH at 1 μM) was “reduced the levels of the furin-processed transmembrane NOTCH1 subunit”. In the data set on NOTCH1 [2] (T-ALL cell lines, 24 h), the ICN1 level entry is “decreased ICN1 levels” and the “unprocessed full-length NOTCH1 (FL-N1) level” value is recorded as “not the unprocessed full-length NOTCH1 precursor”. Further, the “activity on NOTCH1 processing relative to JQ-FT” value with NOTCH1 [2] (T-ALL cell lines, 24 h treatment) is “much lower activity”. Moreover, in the data set with NOTCH1 [2] (WT cell lines (Loucy, MOLT16), concentrations tested), the “NOTCH1 maturation in NOTCH1 WT cell lines” value was “no effect on NOTCH1 maturation in the WT cell lines”. Besides, in the data set with T-ALL cell lines [3] (Thap-OH, dose-ranging ATP content assays), the T-ALL cell viability result is recorded as “decrease in T-ALL cell viability”. The “sensitivity of NOTCH1 mutant versus WT T-ALL cells” value in the data set on T-ALL cell lines [3] (mutated (ALL/SIL, DND41, PF382, RPMI 8402) vs WT (Loucy, MOLT16, SUPT11)) is “mutant T-ALL cells were more sensitive to the effects of Thap-OH than NOTCH1 WT cells”. Also, in the data set with FR2, the FR2 expression entry is reported as “No change in FR2 expression”. Also, in data set [4], the “detection of released Thap-OH in cell lysate” value is “detected in cell lysate”.

As for `Nc1nc2ncc(CNc3ccc(C(=O)N[C@@H](CCC(=O)O)C(=O)O)cc3)nc2c(=O)[nH]1` [folic acid], in the data set on T-ALL cell lines [5] (free folic acid added to T-ALL culture), the “competition of free folic acid with folate derivatives for uptake” value is listed as “competed away the folate derivatives; also recorded: competes with folate-FITC”.

On to `CCCCC[C@@H](O)[C@H]1C(=O)O[C@H](C)[C@@H](O)/C=C/C=C/C=C/C=C/C=C(\C)[C@@H](O)C[C@H](O)C[C@H](O)C[C@H](O)C[C@H](O)C[C@H](O)C[C@@H]1O` [filipin], for which the “mean percentage reduction of FITC fluorescence signal” value in the data set on T-ALL cell lines [5] (four T-ALL cell lines pretreated with 10 μM filipin, 10 μM FL-FITC) stood at 38.9±2.5 percentage.
